Laboratory results as given in US5869499A, “Benzyloxyquinuclidines as substance P antagonists” (Pfizer Inc, priority 1993, dated 1999).
Counter-ions that a name gives are not always drawn.

Tested on: plasma protein extravasation in the ureter in response to capsaicin
Experiment: Capsaicin-induced plasma extravasation test
Format: in vivo, male Hartley guinea pigs
Conditions: dosed orally 1 h before capsaicin challenge, guinea pig ureter
Method: In this test, antiinflammatory activity is determined as the percent inhibition of plasma protein extravasation in the ureter of male Hartley quinea pigs (weighing 300-350 g) in response to the intraperitoneal injection of capsaicin into anesthetized animals. The compounds of the present invention are dissolved in 0.1% methyl cellulose/water and dosed orally 1 h before capsaicin challenge. Evans Blue dye (30 mg/kg) is administered intravenously 5 min before capsaicin challenge. The animals are killed 10 min after capsaicin injection and both right and left ureters are removed. The Evans Blue dye is extracted and determined […]. In the above tests, compounds are considered active if the difference in response between the drug-treated animals and a control group receiving the vehicle alone is statistically significant.

SMILES | ED50 (Cavia porcellus, po) | ED50 relative to ED50 of non-substituted compound (x)
FC(F)(F)c1cc(CO[C@H]2C3CCN(CC3)[C@H]2C(c2ccccc2)c2ccccc2)cc(C(F)(F)F)c1 [compound (x)] | 2.4 mg/kg | –
O=C(O)[C@@H]1CN2CC[C@H]1[C@H](OCc1cc(C(F)(F)F)cc(C(F)(F)F)c1)[C@@H]2C(c1ccccc1)c1ccccc1 [Example 2, (3S,4R,5S,6S)-3,5-bis(trifluoromethyl)benzyoxy)-6-diphenylmethyl-5-(-1-azabicyclo[2.2.2]octane-3-carboxylic acid hydrochloride] | – | more than 100 times lower
